Test results from publication PMC3591448, “Profile of the GSK Published Protein Kinase Inhibitor Set Across ATP-Dependent and-Independent Luciferases: Implications for Reporter-Gene Assays” (PLoS ONE, 2013).
pIC50: −log10 of the molar value. Read-outs that look alike come from different tables or passages of the source.

What was measured:
CDK = system: CDK; design: method as in Stevens, K. L., et al. 2008; details: ref Stevens, K. L., et al. 2008; read-out: PKI IC50 (µM), CDK; cited from earlier work
[1] = molecular target: T1, Renilla luciferase (RLuc) (Renilla reniformis, UniProt P27652); assay: RLuc enzymatic assay (purified enzyme, qHTS, 1536-well); format: biochemical; details: 1 nM RLuc, 5 µM coelenterazine-H
T1 sequence (P27652 1-311): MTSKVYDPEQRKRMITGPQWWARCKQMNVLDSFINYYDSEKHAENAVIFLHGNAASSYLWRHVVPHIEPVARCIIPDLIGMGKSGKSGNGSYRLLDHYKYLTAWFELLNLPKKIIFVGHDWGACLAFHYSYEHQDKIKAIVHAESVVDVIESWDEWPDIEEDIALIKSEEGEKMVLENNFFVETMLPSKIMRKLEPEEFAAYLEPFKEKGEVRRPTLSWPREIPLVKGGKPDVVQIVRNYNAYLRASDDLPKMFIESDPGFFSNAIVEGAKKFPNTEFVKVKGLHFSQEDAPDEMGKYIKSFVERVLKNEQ
Description: (§1) 1 µL of purified luciferase was then dispensed into each well for final concentrations 10 nM FLuc or 1 nM RLuc. The bioluminescence outputs were measured by an EnVision reader (PerkinElmer, Wellesley, MA). Due to the relatively short luminescence duration of the RLuc assay, dispense time constants were set to match closely to the read time of the plate reader. As a result, each individual well was read with approximately the same time delay from reagent dispense to signal acquisition. See Table 1 for the 1536-well assay protocols.
(§2) Data from each assay was normalized plate-wise to corresponding intraplate controls as described previously, [17]. The same control data sets were also used for the calculation of Z′ factors from each assay. In all assays, wells containing DMSO were used as no-response controls. For the FLuc enzymatic assay, each compound-treated well on the plate was normalized to the average readings of n = 24 PTC124 treated wells and n = 48 DMSO wells from the same plate. Wells were scaled to a full range of DMSO and zero, and then normalized using the maximum response observed in the screen as 100% activity. For the RLuc enzymatic assay, n = 24 BTS treated wells for the positive control, n = 48 DMSO. MSR values were calculated using the cumulative potency differences of the de-interleaved duplicate control titrations from each plate as previously described. The normalized data from each assay plate set was corrected using DMSO-only treated assay plates read at the start and end of each assay run, and the resulting inter-plate titration data fit, using in-house software, to the standard Hill equation and dose-response curves automatically classified as described previously.
(§3) The curve classification scheme for assignment of resulting curve-fit data into CRC classes was according to Inglese et al. as follows: class 1 curves (far left) display two asymptotes, an inflection point, and r^2≥0.9; subclasses 1a vs. 1b are differentiated by full (>80%) vs. partial (≤80%) response. Class 2 curves (second from left) display a single left-hand asymptote and inflection point; subclasses 2a (or 2.1) and 2b (2.2) are differentiated by a max response and r^2, >80% and >0.9 or <80% and <0.9, respectively. Class 3 curves (second from right) have a single left-hand asymptote, no inflection point, and a response >3SD from the mean activity of the sample field.

[2] = molecular target: firefly luciferase, Photinus pyralis (FLuc) (Photinus pyralis, UniProt P08659); assay: biochemical; format: biochemical; details: for FLuc Parameters Hill Coef: Hill equation fit of CRC; for Emax: response relative to PTC124 control inhibitor, negative = inhibition, read-out: FLuc Parameters Efficacy
Description: as §1, with “The” for “1 µL of purified luciferase was then dispensed into each well for final concentrations 10 nM FLuc or 1 nM RLuc. The”
as §2, §3

VEGFR2 = details: ref Harris, P.A., et al. 2005; read-out: PKI IC50 (µM), VEGFR2; cited from earlier work
[3] = 10 nM FLuc, 10 µM D-luciferin, 10 µM ATP, read-out: FLuc Parameters IC50

firefly luciferase, Photinus pyralis (FLuc), sequence (P08659 whole entry): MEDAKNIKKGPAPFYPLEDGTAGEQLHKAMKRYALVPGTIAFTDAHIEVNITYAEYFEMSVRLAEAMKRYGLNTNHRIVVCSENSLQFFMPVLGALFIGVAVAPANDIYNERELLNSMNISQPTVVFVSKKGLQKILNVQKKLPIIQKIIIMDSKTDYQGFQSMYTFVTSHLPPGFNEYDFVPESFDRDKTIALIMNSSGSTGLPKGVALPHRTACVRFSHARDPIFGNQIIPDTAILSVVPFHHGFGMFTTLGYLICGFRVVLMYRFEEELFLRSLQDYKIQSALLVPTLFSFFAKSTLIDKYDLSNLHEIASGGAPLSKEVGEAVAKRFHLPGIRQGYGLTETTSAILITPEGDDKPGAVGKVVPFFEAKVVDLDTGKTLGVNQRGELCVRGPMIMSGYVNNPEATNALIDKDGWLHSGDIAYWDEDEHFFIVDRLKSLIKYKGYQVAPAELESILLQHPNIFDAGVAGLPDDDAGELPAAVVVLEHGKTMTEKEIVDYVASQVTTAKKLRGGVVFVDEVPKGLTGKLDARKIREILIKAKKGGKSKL

Structure (SMILES): c1cc(-c2cnn3nc(N4CCOCC4)ccc23)nc(NC2CC2)n1 [GW708336X]
- IC50 (CDK): 0.4 µM
- RLuc Curve Class [1]: 4
- pIC50 [2, 3]: 5.34
- pIC50 ([2]; Figure 2b, representative structures of clusters, read-out: FLuc IC50): 5.30
- FLuc Parameters Hill Coef [2]: 1
- pIC50 ([2]; Table 3, read-out: FLuc IC50): 5.34
- Emax [2]: 108%

Structure (SMILES): COc1ccccc1Nc1ncc(-c2ccccc2)o1 [GW577921A]
- RLuc Curve Class [1]: 4
- pIC50 [2, 3]: 5.99
- FLuc Parameters Hill Coef [2]: 1
- pIC50 ([2]; Table 3, read-out: FLuc IC50): 5.99
- Emax [2]: 102%
- IC50 (VEGFR2): 0.38 µM
